Measurements published in ChEMBL document CHEMBL1795221, “In vitro and in vivo anticancer activity evaluation of ursolic acid derivatives” (Eur J Med Chem, 2011).
Activity calls are given as the source filed them. The calls are words filed in the database; no cut-off is given here.

How the values were obtained:
HepG2 [1] = assay: Cell cycle arrest in human HepG2 cells assessed as accumulation at G2/M phase at 20 uM after 24 hrs using propidium iodide staining by flow cytometric analysis (reference value: 14.31 %); assay type: functional
SH-SY5Y = assay: Cytotoxicity against human SH-SY5Y cells after 24 hrs by MTT assay; assay type: functional, cell-based
HepG2 [2] = assay: cells; details: Homo sapiens, HepG2, 24 h
Description: Cytotoxicity against human HepG2 cells after 24 hrs by MTT assay

HepG2 [3] = assay: Cell cycle arrest in human HepG2 cells assessed as accumulation at G0/G1 phase after 24 hrs using propidium iodide staining by flow cytometric analysis; assay type: functional, cell-based
HepG2 [4] = assay: Cell cycle arrest in human HepG2 cells assessed as accumulation at G2/M phase at 10 uM after 24 hrs using propidium iodide staining by flow cytometric analysis (reference value: 14.31 %); assay type: functional
HepG2 [5] = assay: Cell cycle arrest in human HepG2 cells assessed as accumulation at S phase at 20 uM after 24 hrs using propidium iodide staining by flow cytometric analysis (reference value: 28.66 %); assay type: functional
HepG2 [6] = assay: Cell cycle arrest in human HepG2 cells assessed as accumulation at S phase at 10 uM after 24 hrs using propidium iodide staining by flow cytometric analysis (reference value: 28.66 %); assay type: functional
H22 [7] = assay: Antitumor activity against mouse H22 cells xenografted in kunming mouse assessed as inhibition of tumor growth at 50 mg/kg, ip for 7 days; assay type: functional; details: 168 h, read-out: INH, route intraperitoneal
H22 [8] = assay: Antitumor activity against mouse H22 cells xenografted in kunming mouse assessed as inhibition of tumor growth at 100 mg/kg, ip for 7 days; assay type: functional; details: 168 h, route intraperitoneal
HepG2 [9] = assay: Cell cycle arrest in human HepG2 cells assessed as accumulation at S phase after 24 hrs using propidium iodide staining by flow cytometric analysis; assay type: functional, cell-based
BGC-823 [10] = assay: Cytotoxicity against human BGC823 cells after 24 hrs by MTT assay; assay type: functional, cell-based; details: BGC-823, 24 h
HepG2 [11] = assay: Cell cycle arrest in human HepG2 cells assessed as accumulation at G0/G1 phase at 30 uM after 24 hrs using propidium iodide staining by flow cytometric analysis (reference value: 57.03 %); assay type: functional
[12] = Cytotoxicity against human HELF cells after 24 hrs by MTT assay; assay type: cell-based
HepG2 [13] = assay: Cell cycle arrest in human HepG2 cells assessed as accumulation at S phase at 30 uM after 24 hrs using propidium iodide staining by flow cytometric analysis (reference value: 28.66 %); assay type: functional
HepG2 [14] = assay: Induction of apoptosis in human HepG2 cells at 10 to 30 uM after 24 hrs using acridine orange staining by fluorescence microscopy; assay type: functional, cell-based
HeLa = assay: cells; details: Homo sapiens, 24 h
Description: Cytotoxicity against human HeLa cells after 24 hrs by MTT assay

HepG2 [15] = assay: Induction of apoptosis in human HepG2 cells at 10 to 30 uM after 24 hrs using annexin V-EGFP/PI double staining by flow cytometry; assay type: functional, cell-based
HepG2 [16] = assay: Induction of apoptosis in human HepG2 cells assessed as increase in caspase-3 activity at 10 to 30 uM after 24 hrs by spectrophotometry; assay type: functional, cell-based
HepG2 [17] = assay: Cell cycle arrest in human HepG2 cells assessed as accumulation at G0/G1 phase at 10 uM after 24 hrs using propidium iodide staining by flow cytometric analysis (reference value: 57.03 %); assay type: functional
HepG2 [18] = assay: Cell cycle arrest in human HepG2 cells assessed as accumulation at G2/M phase at 30 uM after 24 hrs using propidium iodide staining by flow cytometric analysis (reference value: 14.31 %); assay type: functional
HepG2 [19] = assay: Cell cycle arrest in human HepG2 cells assessed as reduction at G2/M phase after 24 hrs using propidium iodide staining by flow cytometric analysis; assay type: functional, cell-based
BGC-823 [20] = assay: Induction of apoptosis in human BGC823 cells assessed as increase in caspase-3 activity at 10 to 30 uM after 24 hrs by spectrophotometry; assay type: functional, cell-based
HepG2 [21] = assay: Cell cycle arrest in human HepG2 cells assessed as accumulation at G0/G1 phase at 20 uM after 24 hrs using propidium iodide staining by flow cytometric analysis (reference value: 57.03 %); assay type: functional
H22 [22] = assay: Antitumor activity against mouse H22 cells xenografted in kunming mouse assessed as increase in body weight at 50 to 150 mg/kg, ip for 7 days; assay type: functional, organism-based
H22 [23] = assay: Antitumor activity against mouse H22 cells xenografted in kunming mouse assessed as inhibition of tumor growth at 150 mg/kg, ip for 7 days; assay type: functional; details: 168 h, route intraperitoneal

Molecule `CC(=O)O[C@H]1CC[C@]2(C)[C@H]3CC=C4[C@@H]5[C@@H](C)[C@H](C)CC[C@]5(C(=O)N(CCO)CCO)CC[C@@]4(C)[C@]3(C)CC[C@H]2C1(C)C` has an Activity (HepG2 [1]) of 9.66%, an IC50 (SH-SY5Y) of 13.2 µM and an IC50 (HepG2 [2]) of 20.2 µM. The Activity (HepG2 [3]) was “Dose-dependent effect”, the Activity (HepG2 [4]) was 11.98% and the Activity (HepG2 [5]) was 37.43%. It also gave an Activity (HepG2 [6]) of 32.13%, an inhibition in vivo at 50 mg/kg (H22 [7]) of 36.6% and an inhibition in vivo at 100 mg/kg (H22 [8]) of 45.6%. For the same molecule, the Activity (HepG2 [9]) was “Dose-dependent effect”, the IC50 (BGC-823 [10]) was 15.5 µM and the Activity (HepG2 [11]) was 51.57%. For the same molecule, the IC50 [12] was 38.1 µM, the Activity (HepG2 [13]) was 41.53% and the Activity (HepG2 [14]) was “Active”. For the same molecule, the IC50 (HeLa) was 10.9 µM, the Activity (HepG2 [15]) was “Dose-dependent effect” and the Activity (HepG2 [16]) was “Dose-dependent effect”. The Activity (HepG2 [17]) was 55.89%, the Activity (HepG2 [18]) was 6.9% and the Activity (HepG2 [19]) was “Dose-dependent effect”. For the same molecule, the Activity (BGC-823 [20]) was “Dose-dependent effect”, the Activity (HepG2 [21]) was 52.91% and the Activity (H22 [22]) was “Active”. It also gave an inhibition in vivo at 150 mg/kg (H22 [23]) of 43%.
